SMILES strings stand for the structures. Where two headings read alike, the source gives them in different places.

The values that follow come from US5460697A, “Method of pulping wood chips with a fungi using sulfite salt-treated wood chips” (priority 1994, dated 1995).

The test system of experiment [1] is indigenous microorganisms. In words: Effect of sulfite salts on indigenous microorganisms of unsterilized wood chips (plating). The experiment is classed as cell-based, indigenous microorganisms of unsterilized aspen wood chips. Particulars: for first test: whether the salt inhibits growth of indigenous microorganisms: pass / not pass; for inhibition at 600 µg/mL / inhibition at 1200 µg/mL: read-out: Inhibition Relative to control; for inhibition of growth of indigenous microorganisms (in words): unsterilized wood chips, overall statement. The method, then:
Aspen wood chips (50 g O.D. basis) were soaked in 500 ml of water containing either 0 mg, 781 mg or 1562 mg sodium bisulfite for about 1 hour at room temperature. After soaking, water was drained from the chips.
During the 1 hour soaking the chips soaked up about 31 ml of water. Therefore, the final moisture content of wood was about 61% (wet weight basis) and the final concentration of each chemical on water basis was about 0 μg/ml, 600 μg/ml and 1200 μg/ml.
Three chips were pulled randomly from each flask and plated on potato dextrose agar and tryptic soy agar plates. These plates were incubated at 27° C. for 24 or 27 h and the contaminants were visually observed.
A panel of other sulfur-containing chemicals were analyzed for their ability to inhibit the growth of indigenous microorganisms on unsterilized wood chips in the manner described above. Table 2 describes the various concentrations of these chemicals and the percent inhibition relative to control plates observed.

In experiment [2] the test system is indigenous microorganisms. Particulars: Lamar et al. 1990; cited from earlier work.

Turning to `O=S([O-])S(=O)[O-].[Na+].[Na+]` [Sodium Hydrosulfite], in experiment [1], the “first test: whether the salt inhibits growth of indigenous microorganisms” value is reported as “passed the first test”, the inhibition at 600 µg/mL came out at 70%, the inhibition at 1200 µg/mL worked out at 100% and the “inhibition of growth of indigenous microorganisms (in words)” value is “successfully inhibited the growth of microorganisms”.

Turning to `O=S(=O)([O-])[O-].[Na+].[Na+]` [Sodium Sulfate], the “Inhibition Relative to control” value in experiment [1] (600 μg/ml) and in experiment [1] (1200 μg/ml) was 0% throughout. For the same compound, the “first test: whether the salt inhibits growth of indigenous microorganisms” value in experiment [1] is given as “did not pass the test”.

As for `O=S([O-])[O-].[Na+].[Na+]` [Sodium Sulfite], the “Inhibition Relative to control” value in experiment [1] (600 μg/ml) and in experiment [1] (1200 μg/ml) was 0% in each case. Further, the “first test: whether the salt inhibits growth of indigenous microorganisms” value in experiment [1] is recorded as “did not pass the test”.

`O=S(=O)(O)SSS(=O)(=O)O` [Sodium Tetrathionate]: in experiment [1], the inhibition at 600 µg/mL stood at 0% and the inhibition at 1200 µg/mL amounted to 0%.

For the compound `O=S([O-])([O-])=S.[Na+].[Na+]` [Sodium Thiosulfate], the “Inhibition Relative to control” value in experiment [1] (600 μg/ml) and in experiment [1] (1200 μg/ml) was 0% throughout.

Consider `O=S(O)S(=O)(=O)O` [Sodium meta-Bisulfite], for which the inhibition at 600 µg/mL in experiment [1] (600 μg/ml) turned out to be 100%. Besides, the inhibition at 1200 µg/mL in experiment [1] (1200 μg/ml) is 100%. In experiment [1], the “first test: whether the salt inhibits growth of indigenous microorganisms” value was “passed the first test” and the “inhibition of growth of indigenous microorganisms (in words)” value was “successfully inhibited the growth of microorganisms”.

On to `CBr` [methyl bromide], for which the “inhibition of indigenous microorganisms (in words)” value in experiment [2] was “inhibit a number of indigenous microorganisms”.

With `O=S([O-])O.[K+]` [potassium bisulfite], the “first test: whether the salt inhibits growth of indigenous microorganisms” value in experiment [1] is “passed the first test”.
